Test results reported in patent US6706716B2, “Compounds specific for the human α1d adrenergic receptor and uses thereof” (Synaptic Pharmaceutical Corporation, priority 1998, dated 2004).

What was measured:
[1] = target: T1, human α1a adrenergic receptor (Homo sapiens, UniProt P35348); assay: Radioligand binding ([3H]prazosin) at cloned human α1a adrenergic receptor; details: LM(tk-) cell membranes, read-out: Binding affinities (pKi) α1a (converted)
T1 construct: The entire coding region of α1a (1401 bp); expressed in transfected cells
T1 sequence (P35348 1-466): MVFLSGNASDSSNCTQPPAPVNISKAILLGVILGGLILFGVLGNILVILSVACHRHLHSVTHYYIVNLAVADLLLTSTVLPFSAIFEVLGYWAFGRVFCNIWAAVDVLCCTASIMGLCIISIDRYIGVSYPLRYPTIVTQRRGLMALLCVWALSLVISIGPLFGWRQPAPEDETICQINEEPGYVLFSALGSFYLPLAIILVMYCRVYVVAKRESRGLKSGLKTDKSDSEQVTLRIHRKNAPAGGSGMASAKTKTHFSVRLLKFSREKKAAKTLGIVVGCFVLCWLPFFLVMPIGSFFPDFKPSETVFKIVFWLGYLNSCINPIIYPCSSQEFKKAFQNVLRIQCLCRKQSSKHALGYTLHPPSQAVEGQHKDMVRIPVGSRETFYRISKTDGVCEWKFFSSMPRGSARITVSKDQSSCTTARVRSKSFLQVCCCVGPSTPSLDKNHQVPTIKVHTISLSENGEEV
Description: (§1) First, conditions were determined which allowed measurement of the specific binding of a compound known to bind to the receptor. Then, the binding of the known compound to the receptor in membrane preparations was evaluated in the presence of several different concentrations of the test compound.
(§2) These cell lines were prepared by transfecting the cloned cDNA or cloned genomic DNA or constructs containing both genomic DNA and cDNA encoding the human receptors as described below.
The construct involved ligating three partial overlapping fragments: a 5′0.6 kb HincII genomic clone, a central 1.8 EcoRI hippocampal cDNA clone, and a 3′0.6 Kb PstI genomic clone. The hippocampal cDNA fragment overlaps with the 5′ and 3′ genomic clones so that the HincII and PstI sites at the 5′ and 3′ ends of the cDNA clone, respectively, were utilized for ligation. This full-length clone was cloned into the KpnI site of the expression vector, using the 5′ and 3′ KpnI sites of the fragment, derived from vector (i.e., pBluescript) and 3′-untranslated sequences, respectively. Stable cell lines were selected as described above. Membranes were harvested and assayed for their ability to bind [^3H]prazosin as described below (see Radioligand Binding assays).
(§3) Radioligand Binding Assays for α1 Human Adrenergic Receptors: Transfected cells from culture flasks were scraped into 5 ml of 5 mM Tris-HCl, 5 mM EDTA, pH 7.5, and lysed by sonication. The cell lysates were centrifuged at 1000 rpm for 5 min at 4° C., and the supernatant was centrifuged at 30,000×g for 20 min at 4° C. The pellet was suspended in 50 mM Tris-HCl, 1 mM MgCl2, and 0.1% ascorbic acid at pH 7.5. Binding of the α1, antagonist [^3H]prazosin (0.5 nM, specific activity 76.2 Ci/mmol) to membrane preparations of LM(tk-) cells was done in a final volume of 0.25 ml and incubated at 37° C. for 1 hour. Nonspecific binding was determined in the presence of 10 μM phentolamine. The reaction was stopped by filtration through GF/B filters using a cell harvester.

[2] = target: T2, human α1d adrenergic receptor (Homo sapiens, UniProt P25100); assay: Radioligand binding ([3H]prazosin) at cloned human α1d adrenergic receptor; details: LM(tk-) cell membranes, read-out: Binding affinities (pKi) α1d (converted)
T2 construct: The entire coding region. of α1d (1719 bp); expressed in transfected cells
T2 sequence (P25100 1-572): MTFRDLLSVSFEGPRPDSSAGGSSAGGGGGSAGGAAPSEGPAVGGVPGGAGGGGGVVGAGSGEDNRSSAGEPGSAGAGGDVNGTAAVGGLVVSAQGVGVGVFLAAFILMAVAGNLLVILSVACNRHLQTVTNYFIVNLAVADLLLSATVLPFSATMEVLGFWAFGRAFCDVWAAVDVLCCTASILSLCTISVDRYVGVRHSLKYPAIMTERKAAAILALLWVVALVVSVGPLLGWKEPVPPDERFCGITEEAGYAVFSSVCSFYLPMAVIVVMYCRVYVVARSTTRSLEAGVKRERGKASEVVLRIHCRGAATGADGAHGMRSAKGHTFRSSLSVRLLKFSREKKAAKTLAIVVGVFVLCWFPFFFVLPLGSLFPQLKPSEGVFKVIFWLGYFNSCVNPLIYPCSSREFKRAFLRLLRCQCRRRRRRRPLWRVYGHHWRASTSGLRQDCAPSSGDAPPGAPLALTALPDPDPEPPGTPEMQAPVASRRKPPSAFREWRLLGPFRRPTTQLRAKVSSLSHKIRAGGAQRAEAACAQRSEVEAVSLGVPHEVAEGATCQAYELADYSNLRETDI
Description: as §1, §2
α1d Human Adrenergic Receptor: The entire coding region. of α1d (1719 bp), including 150 base pairs of 5′ untranslated sequence (5′ UT) and 300 bp of 3′ untranslated sequence (3′ UT), was cloned into the BamHI and ClaI sites of the polylinker-modified eukaryotic expression vector pCEXV-3, called EXJ.HR. The construct involved the ligation of partial overlapping human lymphocyte genomic and hippocampal cDNA clones: 5′ sequence were contained on a 1.2 kb SmaI-XhoI genomic fragment (the vector-derived BamHI site was used for subcloning instead of the internal insert-derived SmaI site) and 3′ sequences were contained on a 1.3 kb XhoI-ClaI cDNA fragment (the ClaI site was from the vector polylinker). Stable cell lines were obtained by cotransfection with the plasmid α1A/EXJ (expression vector containing the α1a receptor gene (old nomenclature)) and the plasmid pGCcos3neo (plasmid containing the aminoglycoside transferase gene) into LM(tk-) cells using the calcium phosphate technique. The cells were grown, in a controlled environment (37° C., 5% CO2), as monolayers in Dulbecco's modified Eagle's Medium (GIBCO, Grand Island, N.Y.) containing 25 mM glucose and supplemented with 10% bovine calf serum, 100 units/ml penicillin g, and 100 μg/ml streptomycin sulfate. Stable clones were then selected for resistance to the antibiotic G-418 (1 mg/ml), and membranes were harvested and assayed for their ability to bind [^3H]prazosin as described below (see Radioligand Binding assays).
The cell line expressing the human α1d receptor used herein was designated L-α1A (old nomenclature) and was deposited with the American Type Culture Collection, 12301 Parklawn Drive, Rockville, Md. 20852, U.S.A. under the provisions of the Budapest Treaty for the International Recognition of the Deposit of Microorganisms for the Purposes of Patent Procedure. The cell line expressing the human α1d receptor, was accorded ATCC Accession No. CRL 11138, and was deposited on Sep. 25, 1992.
as §3

[3] = target: T3, human α1b adrenergic receptor (Homo sapiens, UniProt P35368); assay: Radioligand binding ([3H]prazosin) at cloned human α1b adrenergic receptor; details: LM(tk-) cell membranes, read-out: Binding affinities (pKi) α1b (converted)
T3 construct: The entire coding region of α1b (1563 bp); expressed in transfected cells
T3 sequence (P35368 1-520): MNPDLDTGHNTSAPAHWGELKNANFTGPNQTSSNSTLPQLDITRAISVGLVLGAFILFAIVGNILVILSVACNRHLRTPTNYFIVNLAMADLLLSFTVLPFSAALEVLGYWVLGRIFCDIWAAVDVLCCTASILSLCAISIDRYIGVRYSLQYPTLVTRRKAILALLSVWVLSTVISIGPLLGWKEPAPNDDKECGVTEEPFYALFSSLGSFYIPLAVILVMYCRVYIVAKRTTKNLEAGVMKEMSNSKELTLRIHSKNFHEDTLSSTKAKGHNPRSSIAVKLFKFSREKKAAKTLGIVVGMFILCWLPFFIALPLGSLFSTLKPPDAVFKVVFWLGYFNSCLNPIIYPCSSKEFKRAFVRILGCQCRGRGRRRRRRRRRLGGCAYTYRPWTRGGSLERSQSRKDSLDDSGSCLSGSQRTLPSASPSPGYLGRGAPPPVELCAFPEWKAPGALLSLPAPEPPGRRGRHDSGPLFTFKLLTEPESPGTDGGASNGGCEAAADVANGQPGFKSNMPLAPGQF
Description: as §1, §2
α1b Human Adrenergic Receptor: The entire coding region of α1b (1563 bp), including 200 base pairs of 5′ untranslated sequence (5′ UT) and 600 bp of 3′ untranslated sequence (3′ UT), was cloned into the EcoRI site of pCEXV-3 eukaryotic expression vector. The construct involved ligating the full-length EcoRI brainstem cDNA fragment from λ ZapII into the expression vector. Stable cell lines were selected as described above. Membranes were harvested and assayed for their ability to bind [^3H]prazosin as described below (see Radioligand Binding assays). The cell line used herein was designated L-α1B and was deposited with the American Type Culture Collection, 12301 Parklawn Drive, Rockville, Md. 20852, U.S.A. under the provisions of the Budapest Treaty for the International Recognition of the Deposit of Microorganisms for the Purposes of Patent Procedure. The cell line L-α1B was accorded ATCC Accession No. CR 11139, on Sep. 29, 1992.
as §3

[4] = test system: urethane-anesthetized rats; assay: Blood pressure in urethane-anesthetized, normotensive rats; type: in vivo, rat
Description: Rats were anesthetized with urethane and PE50 cannulae were placed in the femoral artery and vein for blood pressure monitoring and drug administration, respectively. After stabilization, rats were administered 200 μl saline vehicle or increasing doses of BMY 7378 or Compound 7 at 10 minutes intervals until the reduction in blood pressure reached a plateau. The 5-HT1A-selective antagonist WAY 100635 (1 mg/kg) was then administered and blood pressure monitored for an additional 10 minutes.

With `C[C@H](CN1CCN(c2cc(F)c(F)cc2F)CC1)N1C(=O)CC2(CCCC2)CC1=O` [Compound 9, 8-{(1R)-2-[4-(2,4,5-Trifluorophenyl)piperazin-1-yl]-1-methylethyl}-8-azaspiro[4.5]decane-7,9-dione] the Ki [1] was 15.8 µM and the Ki [2] was 1.26 nM.
Work on `O=C1CC2(CCCC2)CC(=O)N1[C@@H](CN1CCN(c2cc(F)c(F)cc2F)CC1)c1ccccc1` [Compound 16, 8-{(1R)-1-Phenyl-2-[4-(2,4,5-trifluorophenyl)piperazino]ethyl}-8-azaspiro[4.5]decane-7,9-dione] yielded a Ki [1] of 7.94 µM and a Ki [2] of 79.4 nM.
`O=C1CC2(CCCC2)CC(=O)N1[C@H](Cc1ccccc1)CN1CCN(c2cc(F)c(F)cc2F)CC1` [Compound 17, 8-{(1R)-1-Benzyl-2-[4-(2,4,5-trifluorophenyl)piperazino]ethyl}-8-azaspiro[4.5]decane-7,9-dione] was tested, and the Ki [1] was 10 µM and the Ki [2] was 79.4 nM.
`C[C@@H](CN1CCN(c2cc(F)c(F)cc2F)CC1)N1C(=O)CC2(CCCC2)CC1=O` [Compound 11, 8-{(1S)-2-[4-(2,4,5-Trifluorophenyl)piperazin-1-yl]-1-methylethyl}-8-azaspiro[4.5]decane-7,9-dione] gave a Ki [1] of 12.6 µM and a Ki [2] of 126 nM.
Work on `O=C1CC2(CCCC2)CC(=O)N1CCN1CCN(c2ccccc2F)CC1` [Compound 20, 8-{2-[4-(2-Fluorophenyl)piperazin-1-yl]ethyl}-8-azaspiro[4.5]decane-7,9-dione] yielded a Ki [1] of 0.631 µM and a Ki [3] of 63.1 nM.
`COc1ccccc1N1CCN(CCN2C(=O)CC3(CCCC3)CC2=O)CC1` [BMY 7378, reference compound] was tested, and the “reversal of the blood pressure effect by WAY 100635” value ([4]; 5-HT1A-selective antagonist WAY 100635 1 mg/kg given after plateau) was “reversed” and the “effect on systolic, diastolic and mean blood pressure” value ([4]; urethane-anesthetized rats, increasing i.v. doses at 10 min intervals) was “dose-dependent reduction”.
